{
  "source": "patent US5606038A",
  "about": "“Amphiphilic polyene macrolide antibiotic compounds” (Competitive Technologies, Inc., priority 1995, dated 1997)",
  "key": {"[1]": {"tested_on": "Candida albicans", "experiment": "minimum inhibitory concentration, Candida albicans, broth microdilution", "format": "cell-based", "conditions": "24 h, 37° C.", "experimental": "^c minimum inhibitory concentration (see Example IV); three different\nstrains of Candida albicans were tested; all tests were done in broth\nmicrodilution in yeast nitrogen baseglucose at 37° C. for 24 hours\nthe initial inoculum was 1 × 10^4 blastospores per ml\nThe minimum inhibitory concentration reported in Table I was obtained, and further confirmed as reported in Table II, by the methods described in the following Example IV.\n(§1) Microorganism inocula was harvested from one to five day old cultures grown on Sabourand's dextrose agar. After two washes with sterile saline, the inocula were counted utilizing a hemacytometer and diluted or concentrated as required to 1×10^4 blastospores per ml. Sterile molten agar (at 50° C.) was inoculated, allowed to cool, and 10 mm diameter discs impregnated (from […] stock solutions) with each of the test compounds was placed on the surface of the agar. Zones of inhibition were measured after incubating the plates at 30° C. for 24-48 hours.\n(§2) The compounds were then screened against three strains of three species of microorganisms: Candida albicans, Cryptococcus neoformans, and Aspergillus fumigatus using a conventional double dilution technique. All tests reported in Table II were done by broth microdilution in yeast nitrogen base-glucose using an inoculum of 1×10^4 blastospores per ml; the cultures were incubated at 37° C. for 24 hours, and the minimum concentration (in μg/ml) that prevents visible growth was recorded as the minimum inhibitory concentration."}, "[2]": {"tested_on": "Candida albicans (isolate NIH A)", "experiment": "survival of mice infected with Candida albicans (Example V)", "format": "in vivo, Candida albicans in ICR mice", "conditions": "i.p. once per day for ten days, Example II 30 mg/kg, Amphotericin B 1 mg/kg", "source_text": "Ten immunocompetent ICR mice weighing 30 g each in three groups were inoculated intravenously with 3.2×10^6 colony forming units of Candida albicans (isolate NIH A) per mouse."}, "[3]": {"tested_on": "Candida albicans", "experiment": "K+ release from fungal cells", "format": "cell-based", "conditions": "3×10^7 fungal cells/ml, read-out: concentration for releasing 50% of the K+ from fungal cells"}, "[4]": {"experiment": "hemolysis, 50% release of hemoglobin from human red blood cells", "conditions": "human, red blood cells"}, "[5]": {"experiment": "UV-vis spectroscopy of interaction with cholesterol-containing large unilamellar vesicles", "conditions": "2.6 μM; 1 mM egg PC and 0.5 mM cholesterol; 20 minutes, 23° C.", "source_text": "(§3) In order to confirm that the poly(ethylene glycol)conjugates of the present invention retain their ability to recognize ergosterol-rich bilayers, their interaction with sterol-containing large unilamellar vesicles (1000 A diameter, LUVs) by UV-vis spectroscopy using published techniques [see J. Am. Chem. Soc. 115:708 (1993)]. […] Thus, the poly(ethylene glycol) conjugates according to the present invention recognize ergosterol-rich bilayers in a way that is similar to Amphotericin B."}, "[6]": {"experiment": "UV-vis spectroscopy of interaction with ergosterol-containing large unilamellar vesicles", "conditions": "Example II: 2.6 μM; 1 mM egg phosphatidyl choline and 0.5 mM ergosterol; 20 minutes, 23° C.", "source_text": "as §3"}, "[7]": {"tested_on": "Aspergillus fumigatus", "experiment": "minimum inhibitory concentration, Aspergillus fumigatus, broth microdilution", "format": "cell-based", "conditions": "24 h, 37° C.", "experimental": "as §1, §2"}, "[8]": {"tested_on": "Cryptococcus neoformans (isolate NIH C-1)", "experiment": "survival of mice infected with Cryptococcus neoformans (Example VI)", "format": "in vivo, Cryptococcus neoformans in ICR mice", "conditions": "30 mg/kg i.p. once per day", "source_text": "(§4) Ten immunocompetent ICR mice weighing 30 g each in two groups were inoculated intravenously with 255 colony forming units of Cryptococcus neoformans (isolate NIH C-1) per mouse."}, "[9]": {"tested_on": "C. neoformans", "experiment": "second in vivo assay, survival of mice infected with C. neoformans", "set-up": "species or system C. neoformans in ICR mice", "conditions": "5 mg/kg subcutaneous BID", "experimental": "as §4\nA second in vivo assay was conducted as in Example VI with the exception that infection was with 488 colony forming units of C. neoformans, and that the test compound was administered 5 mg/kg, subcutaneous, BID."}, "[10]": {"tested_on": "Candida albicans (isolate NIH A)", "experiment": "MIC against infecting isolate of Example V", "format": "cell-based", "conditions": "24 and 48 hours"}, "[11]": {"experiment": "critical micelle concentration in PBS by molar absorptivity at 409 nm", "format": "physicochemical", "conditions": "PBS (pH 7.4), 37° C.", "source_text": "In its monomeric state, Amphotericin B has a characteristic absorption band at 409 nm; upon aggregation, however, its apparent molar absorptivity decreases in magnitude [see Biochemistry 30:5707 (1991)]. Thus, by measuring its molar absorptivity as a function of the reciprocal of the macrolide concentration, one can estimate the critical micelle concentration. This can be shown mathematically by allowing T, m and P to represent the total, monomeric, and micellar concentrations (i.e. the concentration of the drug that is present in micellar form) of the macrolide, respectively, and if ε represents the apparent molar absorptivity and εm and εp are the molar absorptivity for the monomeric and micellar components, respectively, then it can be shown that ε=εp +(εm -εp)m/T. At concentrations in excess of the critical micelle concentration, m is a constant and ε is inversely proportional to T.\nUsing the method described previously, the critical micelle concentrations for Amphotericin B and the conjugates described in the preceding examples were determined and are reported in Table I describing the aggregation, antifungal and hemolytic properties of […] macrolide antibiotics (in μM amounts) according to the present invention.\n^a critical micelle concentration was determined in PBS (pH 7.4) at […]"}, "[12]": {"experiment": "solubility in water", "format": "physicochemical"}},
  "note": "Where two headings read alike, the source gives them in different places.",
  "data": [
    {"smiles": "COCCOCCOCCOCCOCCOCCNC(=O)[C@H]1[C@@H]2C[C@@H](O[C@@H]3O[C@H](C)[C@@H](O)[C@H](N)[C@@H]3O)/C=C/C=C/C=C/C=C/C=C/C=C/C=C/[C@H](C)[C@@H](O)[C@@H](C)[C@H](C)OC(=O)C[C@H](O)C[C@H](O)CC[C@@H](O)[C@H](O)C[C@H](O)C[C@](O)(C[C@@H]1O)O2", "note": "[Example II]", "values": [
      {"measurement": "MIC", "setting": "[1]; C. albicans (1), read-out: minimum inhibitory concentration", "result": 6.4, "unit": "µg/mL"},
      {"measurement": "MIC", "setting": "[1]; C. albicans (2), read-out: minimum inhibitory concentration", "result": 3.2, "unit": "µg/mL"},
      {"measurement": "MIC", "setting": "[1]; C. albicans (3), read-out: minimum inhibitory concentration", "result": 3.2, "unit": "µg/mL"},
      {"measurement": "MIC", "setting": "[1]; three strains of Candida albicans, yeast nitrogen base-glucose, 1 × 10^4 blastospores per ml, read-out: MIC (minimum inhibitory concentration)", "result": 2.7, "unit": "µM"},
      {"measurement": "percent survival", "setting": "[2]; day 2 post-infection", "result": 100, "unit": "%"},
      {"measurement": "percent survival", "setting": "[2]; day 3 post-infection", "result": 100, "unit": "%"},
      {"measurement": "percent survival", "setting": "[2]; day 4 post-infection", "result": 100, "unit": "%"},
      {"measurement": "percent survival", "setting": "[2]; day 5 post-infection", "result": 100, "unit": "%"},
      {"measurement": "percent survival", "setting": "[2]; day 6 post-infection", "result": 100, "unit": "%"},
      {"measurement": "percent survival", "setting": "[2]; day 7 post-infection", "result": 90, "unit": "%"},
      {"measurement": "percent survival", "setting": "[2]; day 30 post-infection", "result": 90, "unit": "%"},
      {"measurement": "EC50", "setting": "[3]", "result": 1000, "unit": "nM"},
      {"measurement": "HC50 at 1 h", "setting": "[4]", "result": 42, "unit": "µM"},
      {"measurement": "absorption spectrum with cholesterol-containing vesicles", "setting": "[5]", "result": "essentially the same as that observed in the presence of egg phosphatidyl choline vesicles (without sterol)"},
      {"measurement": "absorption spectrum change with ergosterol-containing vesicles", "setting": "[6]", "result": "strong diminution in the monomer band at 409 nm and new bands at 415, 390 and 375 nm"},
      {"measurement": "MIC", "setting": "[7]; A. fumigatus (1)", "result": 6.4, "unit": "µg/mL"},
      {"measurement": "MIC", "setting": "[7]; A. fumigatus (2)", "result": 3.2, "unit": "µg/mL"},
      {"measurement": "MIC", "setting": "[7]; A. fumigatus (3)", "result": 3.2, "unit": "µg/mL"},
      {"measurement": "percent survival", "setting": "[8]; day 9 post-infection", "result": 100, "unit": "%"},
      {"measurement": "percent survival", "setting": "[8]; day 10 post-infection", "result": 100, "unit": "%"},
      {"measurement": "percent survival", "setting": "[8]; day 13 post-infection", "result": 100, "unit": "%"},
      {"measurement": "percent survival", "setting": "[8]; day 14 post-infection", "result": 90, "unit": "%"},
      {"measurement": "percent survival", "setting": "[8]; day 15 post-infection", "result": 90, "unit": "%"},
      {"measurement": "percent survival", "setting": "[8]; day 16 post-infection", "result": 90, "unit": "%"},
      {"measurement": "percent survival", "setting": "[8]; day 17 post-infection", "result": 90, "unit": "%"},
      {"measurement": "percent survival", "setting": "[8]; day 18 post-infection", "result": 90, "unit": "%"},
      {"measurement": "percent survival", "setting": "[8]; day 19 post-infection", "result": 90, "unit": "%"},
      {"measurement": "percent survival", "setting": "[8]; day 20 post-infection", "result": 90, "unit": "%"},
      {"measurement": "percent survival", "setting": "[8]; day 21 post-infection", "result": 90, "unit": "%"},
      {"measurement": "percent survival", "setting": "[8]; day 22 post-infection", "result": 70, "unit": "%"},
      {"measurement": "percent survival", "setting": "[8]; day 25 post-infection", "result": 70, "unit": "%"},
      {"measurement": "percent survival", "setting": "[8]; day 26 post-infection", "result": 60, "unit": "%"},
      {"measurement": "percent survival", "setting": "[8]; day 27 post-infection", "result": 60, "unit": "%"},
      {"measurement": "percent survival", "setting": "[8]; day 28 post-infection", "result": 50, "unit": "%"},
      {"measurement": "percent survival", "setting": "[8]; day 29 post-infection", "result": 50, "unit": "%"},
      {"measurement": "percent survival", "setting": "[8]; day 30 post-infection", "result": 40, "unit": "%"},
      {"measurement": "percent survival", "setting": "[9]; day 11 post-infection", "result": 100, "unit": "%"},
      {"measurement": "percent survival", "setting": "[9]; day 12 post-infection", "result": 80, "unit": "%"},
      {"measurement": "percent survival", "setting": "[9]; day 13 post-infection", "result": 60, "unit": "%"},
      {"measurement": "percent survival", "setting": "[9]; day 14 post-infection", "result": 60, "unit": "%"},
      {"measurement": "percent survival", "setting": "[9]; day 15 post-infection", "result": 60, "unit": "%"},
      {"measurement": "percent survival", "setting": "[9]; day 16 post-infection", "result": 60, "unit": "%"},
      {"measurement": "percent survival", "setting": "[9]; day 17 post-infection", "result": 60, "unit": "%"},
      {"measurement": "percent survival", "setting": "[9]; day 19 post-infection", "result": 60, "unit": "%"},
      {"measurement": "percent survival", "setting": "[9]; day 20 post-infection", "result": 60, "unit": "%"},
      {"measurement": "percent survival", "setting": "[9]; day 21 post-infection", "result": 60, "unit": "%"},
      {"measurement": "percent survival", "setting": "[9]; day 22 post-infection", "result": 60, "unit": "%"},
      {"measurement": "percent survival", "setting": "[9]; day 23 post-infection", "result": 40, "unit": "%"},
      {"measurement": "percent survival", "setting": "[9]; day 24 post-infection", "result": 20, "unit": "%"},
      {"measurement": "percent survival", "setting": "[9]; day 27 post-infection", "result": 20, "unit": "%"},
      {"measurement": "percent survival", "setting": "[9]; day 28 post-infection", "result": 10, "unit": "%"},
      {"measurement": "percent survival", "setting": "[9]; day 29 post-infection", "result": 10, "unit": "%"},
      {"measurement": "percent survival", "setting": "[9]; day 30 post-infection", "result": 0, "unit": "%"},
      {"measurement": "MIC", "setting": "[10]; in DMSO and water", "result": 3.03, "unit": "µg/mL"},
      {"measurement": "MIC", "setting": "[10]; in water only", "result": "≤ 6.06", "unit": "µg/mL"},
      {"measurement": "cmc (critical micelle concentration)", "setting": "[11]", "result": 25, "unit": "µM"},
      {"measurement": "solubility", "setting": "[12]", "result": "≥ 10000", "unit": "µg/mL"}
    ]}
  ]
}
